This is an account of results in ChEMBL document CHEMBL4316608, “Artemisinin-indole and artemisinin-imidazole hybrids: Synthesis, cytotoxic evaluation and reversal effects on multidrug resistance in MCF-7/ADR cells” (Bioorg Med Chem Lett, 2019).

Where a name gives a salt, the structure may show the parent alone.

In the first series the test system is NCI/ADR-RES. Description: Potentiation of adriamycin-induced antiproliferative activity against human MCF7/ADR cells assessed as fold reduction in adriamycin IC50 at 5 uM measured after 48 hrs by MTT assay. It counts as functional.
Settings: not given
(Formazan colour is commonly taken as a measure of viable cells.)
Take `C[C@H]1[C@H](OC(=O)CCC(=O)OCCCn2ccnc2[N+](=O)[O-])O[C@@H]2O[C@@]3(C)CC[C@H]4[C@H](C)CC[C@@H]1[C@@]24OO3`: the “fold change (FC)” value is recorded as 16.69.
Turning to `C[C@H]1[C@H](OC(=O)CCC(=O)OCCn2cnc([N+](=O)[O-])c2)O[C@@H]2O[C@@]3(C)CC[C@H]4[C@H](C)CC[C@@H]1[C@@]24OO3`, the “fold change (FC)” value worked out at 43.48.

The subject of a further series is L02. Description: Cytotoxicity against human L02 cells measured after 48 hrs by MTT assay. It counts as cell-based. The conditions noted are these: L02, 48 h.
In general, IC50 refers to the concentration needed to halve the response being measured. High values mean weaker potency in that assay, low ones greater potency in that assay. In the case of `C[C@@H]1CC[C@H]2[C@@H](C)C(=O)O[C@@H]3O[C@@]4(C)CC[C@@H]1[C@]32OO4` [ARTEMISININ], the IC50 is greater than 100 µM.
`C[C@H]1[C@H](OC(=O)CCC(=O)OCCCn2ccnc2[N+](=O)[O-])O[C@@H]2O[C@@]3(C)CC[C@H]4[C@H](C)CC[C@@H]1[C@@]24OO3` gave a concentration for half-maximal inhibition (IC50) of 46.4 µM.
The same measure, in the same setting: then `C[C@H]1[C@H](OC(=O)CCC(=O)O)O[C@@H]2O[C@@]3(C)CC[C@H]4[C@H](C)CC[C@@H]1[C@@]24OO3` [ARTESUNATE], with 72.2 µM; and `COc1cccc2c1C(=O)c1c(O)c3c(c(O)c1C2=O)C[C@@](O)(C(=O)CO)C[C@@H]3O[C@H]1C[C@H](N)[C@H](O)[C@H](C)O1` [DOXORUBICIN HYDROCHLORIDE], with 0.79 µM; and `C[C@H]1[C@H](OC(=O)CCC(=O)OCCn2cnc([N+](=O)[O-])c2)O[C@@H]2O[C@@]3(C)CC[C@H]4[C@H](C)CC[C@@H]1[C@@]24OO3`, with 56.2 µM.

Test system in another series: not listed separately
Description: Toxicity in human MCF7 cells assessed as inhibition of cell proliferation at 5 uM measured after 48 hrs by MTT assay.
Settings: not given
It counts as cell-based.
By inhibition is commonly meant the drop in the measured response relative to a control, in per cent. Regarding `C[C@H]1[C@H](OC(=O)CCC(=O)OCCCn2ccnc2[N+](=O)[O-])O[C@@H]2O[C@@]3(C)CC[C@H]4[C@H](C)CC[C@@H]1[C@@]24OO3`, the inhibition at 48 h, 5 µM came to 22.3%.
As for `C[C@H]1[C@H](OC(=O)CCC(=O)OCCn2cnc([N+](=O)[O-])c2)O[C@@H]2O[C@@]3(C)CC[C@H]4[C@H](C)CC[C@@H]1[C@@]24OO3`, the inhibition at 48 h, 5 µM came to 7.78%.

For the next series, the system named is MDA-MB-231. Kind of series: Antiproliferative activity against human MDA-MB-231 cells measured after 48 hrs by MTT assay. Format: functional, cell-based. Conditions: MDA-MB-231, 48 h.
As for `C[C@@H]1CC[C@H]2[C@@H](C)C(=O)O[C@@H]3O[C@@]4(C)CC[C@@H]1[C@]32OO4` [ARTEMISININ], the IC50 was greater than 100 µM.
`C[C@H]1[C@H](OC(=O)CCC(=O)OCCCn2ccnc2[N+](=O)[O-])O[C@@H]2O[C@@]3(C)CC[C@H]4[C@H](C)CC[C@@H]1[C@@]24OO3`: the IC50 is greater than 100 µM.
On to `C[C@H]1[C@H](OC(=O)CCC(=O)O)O[C@@H]2O[C@@]3(C)CC[C@H]4[C@H](C)CC[C@@H]1[C@@]24OO3` [ARTESUNATE], for which the IC50 was 75.7 µM.
Still for that read-out and setting: the value for `C[C@H]1[C@H](OC(=O)CCC(=O)OCCn2cnc([N+](=O)[O-])c2)O[C@@H]2O[C@@]3(C)CC[C@H]4[C@H](C)CC[C@@H]1[C@@]24OO3` was 82.3 µM.

The next series concerns A549. Description: Antiproliferative activity against human A549 cells measured after 48 hrs by MTT assay. The conditions noted are these: A549, 48 h. Format: functional, cell-based.
In the case of `C[C@@H]1CC[C@H]2[C@@H](C)C(=O)O[C@@H]3O[C@@]4(C)CC[C@@H]1[C@]32OO4` [ARTEMISININ], the IC50 was greater than 50 µM.
`C[C@H]1[C@H](OC(=O)CCC(=O)OCCCn2ccnc2[N+](=O)[O-])O[C@@H]2O[C@@]3(C)CC[C@H]4[C@H](C)CC[C@@H]1[C@@]24OO3` had an IC50 of 20.9 µM. This lies in the double-digit micromolar range.
Take `C[C@H]1[C@H](OC(=O)CCC(=O)O)O[C@@H]2O[C@@]3(C)CC[C@H]4[C@H](C)CC[C@@H]1[C@@]24OO3` [ARTESUNATE]: the IC50 came to 50.7 µM.
Compound `COc1cccc2c1C(=O)c1c(O)c3c(c(O)c1C2=O)C[C@@](O)(C(=O)CO)C[C@@H]3O[C@H]1C[C@H](N)[C@H](O)[C@H](C)O1` [DOXORUBICIN HYDROCHLORIDE] displayed an IC50 of 1.13 µM.
Consider `C[C@H]1[C@H](OC(=O)CCC(=O)OCCn2cnc([N+](=O)[O-])c2)O[C@@H]2O[C@@]3(C)CC[C@H]4[C@H](C)CC[C@@H]1[C@@]24OO3`, for which the IC50 was 12.7 µM.

The next series has as its system MCF7. Kind of series: Antiproliferative activity against human MCF7 cells measured after 48 hrs by MTT assay. The conditions noted are these: MCF7, 48 h. It counts as functional, cell-based.
Compound `C[C@@H]1CC[C@H]2[C@@H](C)C(=O)O[C@@H]3O[C@@]4(C)CC[C@@H]1[C@]32OO4` [ARTEMISININ] returned an IC50 greater than 50 µM.
The same measure, in the same setting: the value for `C[C@H]1[C@H](OC(=O)CCC(=O)OCCCn2ccnc2[N+](=O)[O-])O[C@@H]2O[C@@]3(C)CC[C@H]4[C@H](C)CC[C@@H]1[C@@]24OO3` was 12.9 µM.
The compound `C[C@H]1[C@H](OC(=O)CCC(=O)O)O[C@@H]2O[C@@]3(C)CC[C@H]4[C@H](C)CC[C@@H]1[C@@]24OO3` [ARTESUNATE] registered an IC50 of 38.7 µM.
On the same count and under the same terms, then `C[C@H]1[C@H](OC(=O)CCC(=O)OCCn2cnc([N+](=O)[O-])c2)O[C@@H]2O[C@@]3(C)CC[C@H]4[C@H](C)CC[C@@H]1[C@@]24OO3`, with 14 µM.

A further series deals with CCRF-CEM. Description: Cytotoxicity against human CCRF-CEM cells by XTT assay. It counts as functional, cell-based.
Settings: not given
For the compound `C[C@@H]1CC[C@@H]2[C@]34OO[C@](C)(CC[C@@H]13)O[C@H]4OC[C@]2(C)O`, the IC50 was 156 µM.

Another series relates to HepG2. Kind of series: Antiproliferative activity against human HepG2 cells measured after 48 hrs by MTT assay. Conditions: HepG2, 48 h. It counts as functional, cell-based.
Regarding `C[C@@H]1CC[C@H]2[C@@H](C)C(=O)O[C@@H]3O[C@@]4(C)CC[C@@H]1[C@]32OO4` [ARTEMISININ], the IC50 is greater than 50 µM.
On to `C[C@H]1[C@H](OC(=O)CCC(=O)OCCCn2ccnc2[N+](=O)[O-])O[C@@H]2O[C@@]3(C)CC[C@H]4[C@H](C)CC[C@@H]1[C@@]24OO3`, for which the IC50 was determined as 39.3 µM. That is a double-digit micromolar value.
Regarding `C[C@H]1[C@H](OC(=O)CCC(=O)O)O[C@@H]2O[C@@]3(C)CC[C@H]4[C@H](C)CC[C@@H]1[C@@]24OO3` [ARTESUNATE], the half-maximal inhibitory concentration (IC50) amounted to 39.9 µM.
In turn, `C[C@H]1[C@H](OC(=O)CCC(=O)OCCn2cnc([N+](=O)[O-])c2)O[C@@H]2O[C@@]3(C)CC[C@H]4[C@H](C)CC[C@@H]1[C@@]24OO3` had an IC50 of 34.9 µM.

A further series relates to ADR5000 cell line. Kind of series: Cytotoxicity against human CEM/ADR5000 cells by XTT assay. It counts as functional, cell-based.
Settings: not given
Compound `C[C@@H]1CC[C@@H]2[C@]34OO[C@](C)(CC[C@@H]13)O[C@H]4OC[C@]2(C)O` returned an IC50 of 90 µM.
